Literature values, collected in US20260216201A1 (priority 2025, published 2026).

Settings: n-octanol/buffer pH 7.4

- apparent partition coefficient (log P): 0.1
Compound: Cc1cnc(NC(=O)C2=C(O)c3ccccc3S(=O)(=O)N2C)s1 [Meloxicam, 4-hydroxy-2-methyl-N-(5 methyl-2-thiazolyl)-2H-1,2-benzothiazine-3-carboxamide-1,1-dioxide]
